Assay [1] deals with CRISPR edited HMLE cell lines (ERCC3 heterozygous mutants). Put plainly: Cell viability after IlludinS, CRISPR/Cas9 edited ERCC3 heterozygous mutant cells. The class given is cell-based, human. As for the experimental part: (§1) Overexpression of ERCC3 mutant constructs […] physiological levels of protein in a germline heterozygous mutation state within cells. Therefore, using CRISPR/Cas9, we engineered several heterozygous mutations in the mammary epithelial cell line HMLE that mimic the site of the originally discovered recurrent mutation in breast cancer individuals (Table 3, FIG. 4).
(§2) For viability assessment following treatment with IlludinS (Cayman Chemical), cells were seeded into 96 well plates 24 hours prior to treatment. For post-UV viability assays, cells were exposed to the appropriate doses of UV irradiation and subsequently seeded into 96 well plates. Cell viability was measured after 72 hours using the CellTiter-Glo® Luminescent Cell Viability Assay (Promega).

In another assay the test system is parental HMLE cells. Put plainly: Cell viability after IlludinS, parental mammary epithelial cells. The format is cell-based, human. The following applies: 2 ng/ml IlludinS, 72 hours. As for the experimental part: as §1, §2
In assay [2] the test system is γ-H2AX in HMLE control and ERCC3 CRISPR edited cell lines. The class given is cell-based, human. Conditions: 8 ng/ml IlludinS for 1 h; ERCC3 CRISPR mutants vs wild type, P<0.05. As for the experimental part:
To assess the induction and removal of phosphorylated H2AX in response to DNA damage we performed immunostaining and flow cytometric analysis of γ-H2AX positive cells following treatment with IlludinS.
For flow cytometric analysis, 24 h after seeding, cells were either left untreated or were treated with 8 ng/ml IlludinS for 1 h. Treated cells were subsequently washed with PBS and supplemented with drug-free medium. The cells were harvested at different time points after treatment and fixed with 4% PFA for 10 min at RT. Cells were quickly chilled on ice and ice-cold MeOH was added to a final concentration of 90%. The cells were incubated on ice for 30 min and stored at −20° C. For immunostaining the cells were washed twice with PBS/0.5% BSA and incubated with anti phospho-Histone H2A.X (Ser139) Antibody (1:250; Cell Signaling Technology) for 1 h at RT, washed again and incubated with Alexa-488 conjugated secondary antibody for 45 min at RT. For each condition 20.000 cells were recorded and data from two replicate experiments was analyzed using the FlowJo software (V10.1).

In assay [3] the test system is XPCS2BA parental cell line. Put plainly: Cell viability after IlludinS, parental ERCC3-deficient cell line (CellTiter-Glo). The class given is cell-based, human. As for the experimental part: (§3) To understand whether this variant has a deleterious effect on the gene function, we carried out a series of in vitro functional assays. Using a previously well characterized ERCC3 deficient cell line derived from an XP/CS patient (7), phenotype rescue after DNA damage was assessed by cell viability assay. […] Similarly, following UVC irradiation at a dose of 10 J/m^2, 72 hours post-exposure, 42% of the R109X cells survived compared to 63% of WT cells (P<0.0001). At a dose of […], these numbers reduced more drastically for the mutant, showing the same trend as the IlludinS exposure experiment. (FIG. 2D).
as §2

The subject of assay [4] is XPCS2BA cells stably overexpressing ERCC3 R109X. Put plainly: Cell viability after IlludinS, cells overexpressing the ERCC3 R109X mutant (CellTiter-Glo). The class given is cell-based, human. As for the experimental part:
as §3, §2
For orientation: Cellular ATP, detected with luciferase, serves as a proxy for viable cell number.

Assay [5] concerns XPCS2BA cells stably overexpressing ERCC3 WT. Put plainly: Cell viability after IlludinS, cells overexpressing wild-type ERCC3 (CellTiter-Glo). The class given is cell-based, human. As for the experimental part: as §3, §2
The test system of assay [6] is ERCC3 WT HMLE HRAS-V12 tumors. Kind of assay: Mouse xenograft model, ERCC3 WT tumors. The format is in vivo, athymic nude mice. Conditions: 3.5 mg/kg or 7 mg/kg IP daily for 5 days per 21-day cycle. As for the experimental part: (§4) To assess the effect of the ERCC3 R109X mutation on Irolfulven sensitivity in vivo, a tumor xenograft system was generated and used. As described above, ERCC3 WT and ERCC3-mutant (R109X) cells were made in an HMLE HRAS-V12 background. These cells were injected into the flanks of athymic nude mice. The resultant tumors were allowed to grow to a size of about 100 mm^3. Treatment was then started. Either a vehicle control or Irofulven (at a dose of either 3.5 mg/kg or 7 mg/kg) was injected intraperitoneally (IP) daily for 5 consecutive days (the treatment “on” time), followed by a period of 16 days of treatment “off” time—making one 21-day cycle. Treatment cycles were then repeated. This treatment regimen was similar to that employed in several reported human clinical trials of Irofulven. The size of the tumors was measured weekly. […] In the ERCC3 WT xenograft group the average tumor size at treatment initiation was 97.7 mm^3 (74.6-120.3 mm^3). In the ERCC3 R109X xenograft group the average tumor size at treatment initiation was 172.8 mm^3 (101.8-238.6 mm^3). […] Additional experiments are underway to further validate these preliminary findings.

Assay [7] has as its system ERCC3 expression in ERCC3 mutant tumors. Kind of assay: Real time PCR of ERCC3 transcript in xenograft tumors. The class given is in vivo, athymic nude mice. Conditions: two treatment cycles of Irofulven.
Assay [8] has as its system R109X H-RAS-V12 HMLE cells vs WT H-RAS-V12 HMLE cells. Put plainly: Cell viability after Irofulven, hRAS-V12 expressing ERCC3 WT vs R109X HMLE cells. The format is cell-based, human. The following applies: 72 hours, increasing doses, hRAS-V12 HMLE R109X heterozygous. As for the experimental part:
as §2
(§5) In vitro experiments were performed to compare the effects of Irofulven on cell viability of ERCC3 WT HMLE cells and CRISPR-edited HMLE cells heterozygous for the ERCC3 R109X mutation. These same cell lines were used in Example 1 to assess sensitivity to IlludinS. Cell viability was assessed 72 hours following treatment of the cells with increasing doses of Irofulven. FIG. 11A provides the results in graphical form. Similar experiments were also performed using cells similar to those described above (i.e. that were either ERCC3 WT or R109X) but that also stably expressed mutant hRAS-V12. (These hRAS-V12 cells were used for xenograft generation in the in vivo experiments described below). FIG. 11B provides results showing the effects of Irofulven on cell viability of the +/+WT H-RAS-V12 HMLE cells the heterozygous+/−R109X H-RAS-V12 HMLE cells. The data shown in both FIG. 11A and FIG. 11B represents the mean of three experiments with error bars representing the SEM.

The subject of assay [9] is HMLE+/R109X cells vs HMLE+/+ cells. Put plainly: Cell viability after Irofulven, ERCC3 WT vs R109X heterozygous HMLE cells. The class given is cell-based, human. The following applies: 72 hours, increasing doses. As for the experimental part: as §2, §5
The test system of assay [10] is ERCC3 R109X HMLE HRAS-V12 tumors. Put plainly: Mouse xenograft model, ERCC3 R109X mutant tumors. The class given is in vivo, athymic nude mice. As for the experimental part:
as §4

In the case of `CC1=C2C(=C[C@@](C)(CO)[C@@H]2O)C(=O)[C@](C)(O)C12CC2` [IlludinS, Illudin S], the cell survival result in assay [1] (2 ng/ml IlludinS, 72 hours, CRISPR edited HMLE, P<0.0001) is on record as “significantly reduced survival”; in the assay on parental HMLE cells it was “all the parental HMLE cells survived”; in assay [5] (4 ng/ml IlludinS), “most of the WT cells survived”. In assay [1] (72 hours after exposure to IlludinS, ERCC3 CRISPR clones), the relative cell viability entry is “substantial reduction in relative cell viability”. Moreover, the “response to IlludinS after stable overexpression of WT ERCC3 (rescue)” value in assay [1] (ERCC3 CRISPR cell lines re-expressing WT ERCC3) was “same response to IlludinS as the WT HMLE cell line”. Also, in assay [2], the “reduction in γ-H2AX after DNA damage” value is reported as “significantly lower”. For the same molecule, the cells survived in assay [3] (2 ng/ml IlludinS, 72 hours, XPCS2BA) was 3%; in [4] (2 ng/ml IlludinS, 72 hours, R109X overexpressing XPCS2BA), 42%; in assay [5] (2 ng/ml IlludinS, 72 hours), 77%. For the same molecule, the cell death entry in [3] (higher doses of IlludinS, untransfected cells) is given as “all died”. The “cell death compared to ERCC3 WT” value in [4] (increasing doses of IlludinS, R109X overexpressing cells) was “significantly higher cell death”.
`CC1=C(CO)C2=C(C)C3(CC3)[C@@](C)(O)C(=O)C2=C1` [Irofulven, 6-hydroxymethylacylfulvene]: the tumor growth result in assay [6] and in assay [10] (3.5 mg/kg or 7 mg/kg IP daily for 5 days per 21-day cycle) was “significant reduction” each time. Moreover, the “ERCC3 expression (relative transcript level)” value in [7] is “upregulated”. Besides, the “sensitivity to Irofulven (inhibition of cell viability) vs ERCC3 WT cells” value in assay [8] and in [9] was “much more sensitive” each time. Besides, in [10] (preliminary studies), the “sensitivity to tumor inhibitory effects compared to ERCC3 WT tumors” value was “may have been more sensitive”.

The record behind these values is US20210137850A1, “DIAGNOSIS & TREATMENT OF ERCC3-MUTANT CANCER” (MEMORIAL SLOAN KETTERING CANCER CENTER, priority 2017, published 2021).
